How the values were obtained:
[1] = biological target: T1, rat TRPV1 (Rattus norvegicus, UniProt O35433, E600K); assay: Calcium imaging of HEK 293 cells (Fluo-4/Fura-red), capsaicin-induced Ca2+ influx; format: cell-based
T1 construct: expressed in transfected cells; host or cells: HEK293 cells, transient transfection with pcDNA3.1D (Invitrogen) carrying TRPV1 (E600K) cDNA
Protocol: Transfection and Calcium imaging of HEK 293 cells. HEK293 cells were maintained under standard conditions (37° C., 5% CO2) in Dulbecco's Modified Eagle's Medium (Mediatech) supplemented with 10% fetal bovine serum, penicillin and streptomycin. pcDNA3.1D directional expression system (Invitrogen) was used to clone and express rat TRPV1 and fly NPFR1 cDNA in HEK293 cells. TRPV1 cDNA was PCR amplified from TRPV1 (E600K) sequence (Marella et al., 2006), using the following primers: 5′ […] 3′ (SEQ ID NO: 11) and 5′ […] 3′ (SEQ ID NO: 12). NPFR1 cDNA was PCR amplified from an NPFR1 cDNA plasmid(34), using two primers: 5′ […] 3′ (SEQ ID NO: 13) and 5′ […] 3′ (SEQ ID NO: 14). HEK293 cells were cultured on 8-well polyornithine-coated chambered coverglasses (Nunc) for 24 hrs before transfection. A suspension of 200 μl of water containing 0.4 μg plasmid DNA and 0.8 μl of Lipofectamine 2000 (Invitrogen) was used for transfection. The amounts of TRPV1 and NPFR1 cNDA used were 20 ng and 200 ng, respectively. pcDNA3.1 vector DNA was supplemented, when necessary, to ensure the equal amount of total DNA per transfection.
Calcium imaging was performed between 36-42 hours post transfection at 23° C. Cells were loaded with 1 μM Fluo-4 and 2 μM Fura-red (Invitrogen) for 90 min in Hanks' balanced salt solution (HBSS; Gibco), washed once with HBSS, and imaged using a Zeiss Axiovert 200M scope equipped with a Zeiss LSM 510 Meta laser scanning module. Dyes were excited at 488 nm with argon laser. Emission fluorescence was filtered by a BP505-530 and an LP585 filter. Images were collected for 300 s upon capsaicin stimulation at 1 frame s^−1, and analyzed with the SOARS analysis. NPF was synthesized by Quality Controlled Biochemicals. NPF and cyclic nucleotide analogs (Sigma) were pre-incubated at 23° C. with cells for 20-25 min before adding capsaicin.

[2] = test system: D. melanogaster post-feeding larvae; assay: Larval food aversion (migration) assay on soft agar media; format: in vivo, Drosophila melanogaster; settings: for response of wild type larvae to sugar media: 10% sugar media, wild type larvae (FIG. 2B); for triggering larval wandering: 10% in soft agar paste, post-feeding larvae
Protocol: Behavioral Assays. The food aversion assay was performed in plastic petri dishes (60 mm in diameter). Each apple juice-agar plate contains a mix (ca. 7 ml) of 1 g of Drosophila agar powder (USB, Swampscott, Mass.) and 6 ml apple-juice solution (0.1 g carbohydrates per ml, equivalent to 20% of frozen concentrate). Other soft agar media were made by mixing 1 g agar powder with 6.5 ml of distilled water or solution containing 10% fructose, 10% lactose, 10% sorbitol or 50 μM capsaicin, respectively. The amount of agar powder may require adjustment depending on agar quality. Twenty-five new post-feeding larvae (96 h AEL) were transferred onto a plate. The larvae were allowed to move freely on the medium, and those that crawled onto the plastic surface became less mobile and eventually formed pupae there. The percent of pupae on agar media was scored after 24 hours. All experiments were performed at room temperature except for the temperature shift assay. In these experiments, larvae and food media were pre-incubated at 30° C. for 60 min before the assay. The larvae were subsequently transferred onto the medium and kept at 30° C. All assays were performed in the dark. At least three separate trials were performed per assay.
(§1) Behavioral assays. The migration assay on soft agar media was performed as described previously (Xu et al., 2008), which is hereby incorporated by reference herein in its entirety. Twenty-five postfeeding larvae (96 h AEL) in one plate were allowed to move freely on the medium, and those that crawled onto the plastic surface became less mobile, and eventually formed pupae there. The percentage of pupae on agar media was scored after 24 hours. The clumping assay was also described in the following, which is hereby incorporated by reference herein in its entirety (Wu et al., 2003). Briefly, 45 mm petri dishes containing solid fructose agar (3% agar in a 10% fructose solution) were coated with a thin layer of yeast paste (0.5 g yeast powder in 10% fructose solution). Thirty larvae per plate were allowed to browse for 30 min, and those in clumps were scored immediately. The social burrowing assay was performed on solid agar media containing apple juice or 10% fructose, as described (Wu et al., 2003). All assays, unless stated otherwise, were performed at room temperature in the dark. At least three separate trials were performed per assay.

[3] = biological target: T2, VR1E600K, a variant of vanilloid receptor TRPV1 (Rattus norvegicus, UniProt O35433, E600K); assay: Two-choice medium preference assay (capsaicin vs capsaicin-free media); format: in vivo
T2 construct: expressed in transfected cells; host or cells: Drosophila melanogaster larvae, PAIN neurons (pain-gal4 x UAS-VR1E600K / UAS-TRPV1 transgenic line, Marella et al. 2006)
T2 sequence (O35433 whole entry E600K, the tested form may be a part): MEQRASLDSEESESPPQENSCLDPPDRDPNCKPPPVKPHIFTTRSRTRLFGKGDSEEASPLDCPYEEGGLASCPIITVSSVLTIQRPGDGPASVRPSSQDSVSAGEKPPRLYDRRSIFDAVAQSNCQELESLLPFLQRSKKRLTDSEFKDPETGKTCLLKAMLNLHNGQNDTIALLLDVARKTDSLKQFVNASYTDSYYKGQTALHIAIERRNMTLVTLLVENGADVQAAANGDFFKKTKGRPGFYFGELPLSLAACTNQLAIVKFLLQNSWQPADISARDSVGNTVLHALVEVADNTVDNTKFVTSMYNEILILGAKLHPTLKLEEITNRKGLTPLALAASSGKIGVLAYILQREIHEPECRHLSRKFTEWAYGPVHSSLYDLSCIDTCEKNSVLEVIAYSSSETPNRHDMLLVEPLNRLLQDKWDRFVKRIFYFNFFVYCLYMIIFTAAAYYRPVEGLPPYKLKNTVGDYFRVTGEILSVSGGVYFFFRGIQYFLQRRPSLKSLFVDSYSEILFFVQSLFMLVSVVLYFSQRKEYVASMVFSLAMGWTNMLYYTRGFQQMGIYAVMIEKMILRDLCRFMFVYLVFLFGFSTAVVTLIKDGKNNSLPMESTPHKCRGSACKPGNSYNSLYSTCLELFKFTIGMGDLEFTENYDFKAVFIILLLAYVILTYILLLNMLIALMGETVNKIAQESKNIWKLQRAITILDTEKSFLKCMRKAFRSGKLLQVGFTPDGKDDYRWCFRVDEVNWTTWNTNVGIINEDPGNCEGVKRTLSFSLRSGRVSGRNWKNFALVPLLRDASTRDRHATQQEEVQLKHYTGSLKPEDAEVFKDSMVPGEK
Protocol: The two-choice medium preference assay was performed on a 2.5% agar plate. The apple juice or water agar paste is the same as described above. 10 μl of 5 mM capsaicin stock solution (in 100% ethanol) or 10 μl ethanol was added to each ml of the agar media. 30 larvae were washed extensively to remove any food particles. They were then placed between the two piles of capsaicin and capsaicin-free media (1 cm in diameter), which are located 4 mm apart. The number of larvae in each medium was recorded after 20 min. A preference index was defined as the fraction of larvae choosing the capsaicin-free medium, minus the fraction of larvae choosing the capsaicin medium.

[4] = biological target: T2, VR1E600K, a variant of vanilloid receptor TRPV1; assay: Capsaicin avoidance (migration) of larvae expressing mammalian TRPV1 in PAIN neurons; format: in vivo, Drosophila melanogaster
Text: To provide further evidence that larval wandering behavior represents an aversive response to fructose, pain-gal4 was used to express a mammalian TRP channel protein VR1E600K, a variant of vanilloid receptor TRPV1 responsive to a spicy substance capsaicin from chili peppers (see the following references, which are incorporated herein by reference in their entireties: Caterina, M. J., et al., 1997; Marella, S., et al., 2006; Tobin, D. M., et al., 2002).
Behavioral assays. The migration assay on soft agar media was performed as described previously (Xu et al., 2008), which is hereby incorporated by reference herein in its entirety. […] The percentage of pupae on agar media was scored after 24 hours. […]

[5] = test system: D. melanogaster post-feeding larvae; assay: Larval aggregation / cooperative burrowing on solid agar media; format: in vivo, Drosophila melanogaster; settings: solid 10% fructose agar, post-feeding larvae 96 hr AEL
Protocol: as §1

[6] = test system: pain-expressing sensory neurons; assay: Calcium imaging (yellow cameleon 2.1, SOARS analysis) of larval sensory neurons; format: cell-based, Drosophila melanogaster
Protocol: Imaging. The live images of second instar larvae (ca. 48 h AEL) expressing DsRed driven by pain-gal4 were obtained using a Leica epifluorescence microscope. The immunofluorescence images were taken by a Zeiss LSM 510 Meta confocal microscope and processed by Zeiss AIM Image Examiner. […] Larvae were dissected in a modified HL6 solution containing lactose (HL6-Lac, 23.7 mM NaCl, 15 mM MgCl2, 24.8 mM KCl, 0.5 mM CaCl2, 10 mM NaHCO3, 5 mM HEPES, 240 mM lactose)^38. An incision was made along the dorsal midline, and the gut and the fat bodies were removed. The tissue was placed ventral side up in HL6 solution on a silicon-coated coverslip (Sylgard 184, DOW Corning Corp., Midland, Mich.) in a Dvorak-Stotler perfusion chamber (Lucas Highland, Chantilly, Va.). A minute amount of cyanoacrylate glue (Nexaband S/C, Abott Laboratories, North Chicago, Ill.) was applied to the edge of the cuticle using a glass micropipette to immobilize the tissue. The imaging was performed on a Zeiss LSM 510 Meta confocal microscope (Carl Zeiss Microimaging, Thornwood, N.Y.). YC2.1 was excited at 458 nm with an argon laser. Emission fluorescence was filtered by a BP 475-525 filter (cyan) and an LP 530 filter (yellow). 256×256 pixel images for ratiometric analysis were collected at 1 frame s^−1. The tissue was perfused at a rate of 8.3 ul s^−1 with HL6-Lac, periodically alternating with a modified HL6 solution containing fructose (HL6-Fru, with 240 mM fructose substituting 240 mM lactose in HL6-Lac), switching at 120-second intervals for a total of 800 seconds. The images were subsequently analyzed with the SOARS method (Statistical Optimization for the Analysis of Ratiometric Signals, Version 1.1) as described in the following references, which are hereby incorporated by reference herein in their entireties (Fan, X., et al., 2007; Broder, J., et al., 2007), using Matlab (MathWorks, Natick, Mass.; also see http://www.engr.uga.edu/research/groups/atslab/Software.html).
In brief, SOARS is a multivariate statistical optimization procedure performed on both CFP and YFP channels of the FRET imaging data. The analysis results in a set of eigenimages and associated time courses that represent the part of the imaged signal displaying statistically significant spatial correlation and temporal anti-correlation (e.g., the aspects of the signal that are demonstrable due to FRET). These eigenimages represent the spatial distribution of anti-correlated FRET changes in response to sugar stimulation. Because the stimulus was periodic, the time courses were tested for the presence of stimulus-locked activity. To quantify the significance of the periodic part of the FRET response, p-values for a periodic (sinusoidal) response at the stimulus frequency were calculated using multitaper harmonic analysis (a common method for the detection of sinusoids in noisy data) as described in the following references, which are hereby incorporated herein by reference in their entirety. (Thomson 1982; Mitra et al., 1999, Sornborger et al., 2003; Mitra et al., 2008).
In vivo calcium imaging. […] To quantify the significance of anti-correlated FRET response to fructose stimulation, p-values were calculated for a periodic (sinusoidal) response at the stimulus frequency using multitaper harmonic analysis, a common method for the detection of sinusoids in noisy data (Thomson, 1982), which is hereby incorporated by reference herein in its entirety.

[7] = test system: rats; settings: injected into the forebrain of rats, paw-withdraw test; cited from earlier work
[8] = HEK 293 cells, cyclic nucleotide analog pre-incubated 20-25 min before capsaicin

T1 sequence (O35433 whole entry E600K): as the sequence (O35433 whole entry E600K, the tested form may be a part) above

## Nc1ncnc2c1nc(Br)n2[C@@H]1O[C@@H]2COP(=O)(O)O[C@H]2[C@H]1O [8-Br-cAMP]
[1]; [8]
  effect on TRPV1-mediated Ca2+ influx: significantly increased

## Nc1nc2c(nc(Br)n2[C@@H]2O[C@@H]3COP(=O)(O)O[C@H]3[C@H]2O)c(=O)[nH]1 [8-Br-cGMP]
[1]; HEK 293 cells expressing NPFR1 and TRPV1, in the presence of 8-Br-cGMP
  effect on NPFR1 suppression of TRPV1: significantly enhanced
[1]; [8]
  effect on TRPV1 activity: slightly reduced

## COc1cc(CNC(=O)CCCC/C=C/C(C)C)ccc1O [capsaicin]
[2]; wild type Drosophila larvae (no TRPV1)
  response of wild type larvae to capsaicin: neither attractive nor aversive response
[1]; HEK293 cells transfected with TRPV1 cDNA alone, 400 nM capsaicin
  time to significant Ca2+ influx in response to capsaicin: ≤ 30 s
[3]; post-feeding VR1E600K-expressing larvae
  medium preference in two-choice assay, post-feeding larvae: preference for capsaicin-free media
[3]; younger feeding VR1E600K-expressing larvae (74 h AEL)
  medium preference in two-choice assay, feeding larvae: no such preference
[4]; 400 nM capsaicin, larvae expressing UAS-TRPV1 driven by pain-gal4
  migratory response to capsaicin agar paste: migrate away
[4]; 25 μM capsaicin, control larvae (e.g., VR1E600K alone, no driver)
  response to capsaicin-agar medium, control larvae: no aversive response
[4]; 25 μM capsaicin, post-feeding larvae expressing VR1E600K driven by pain-gal4
  migratory response to capsaicin-agar medium: migrated away

## O=C(CO)[C@@H](O)[C@H](O)[C@H](O)CO [fructose]
[2]
  response of wild type larvae to sugar media: aversive
[2]; w1118 new post-feeding larvae (ca. 96 h AEL), soft agar paste, apple juice or 10% fructose
  larvae that moved away from the medium / pupated outside of the medium: about 80%
[5]
  larval grouping behavior on solid medium: aggregation and cooperative burrowing
[6]; pain^gal4/+, UAS-YC 2.1/+, 74 h AEL, lactose-fructose alternate, ventral sensory neurons in T2 and T3 segments
  Anti-correlated signal: No
[6]; pain^gal4/+, UAS-YC 2.1/+, 96 h AEL, lactose-fructose alternate, chordotonal neurons in A1 segment
  Anti-correlated signal: No
[6]; pain^gal4/+, UAS-YC 2.1/+, 96 h AEL, lactose-fructose alternate, ventral sensory neurons in T2 and T3 segments
  Anti-correlated signal: Yes
[6]; pain^gal4/pain^3, UAS-YC 2.1/+ (pain mutant), 96 h AEL, lactose-fructose alternate, ventral sensory neurons in T2 and T3
  Anti-correlated signal: No

## OC[C@H]1O[C@@H](O[C@H]2[C@H](O)[C@@H](O)C(O)O[C@@H]2CO)[C@H](O)[C@@H](O)[C@H]1O (stereo partly drawn) [lactose]
[2]
  triggering larval wandering: not effective
[6]; pain^gal4/+, UAS-YC 2.1/+, 96 h AEL, lactose-lactose alternate, ventral sensory neurons in T2 and T3
  Anti-correlated signal: No

## OC[C@@H](O)[C@@H](O)[C@H](O)[C@@H](O)CO [sorbitol]
[2]
  triggering larval wandering: not effective

## OC[C@H]1O[C@@](CO)(O[C@H]2O[C@H](CO)[C@@H](O)[C@H](O)[C@H]2O)[C@@H](O)[C@@H]1O [sucrose]
[2]
  response of wild type larvae to sugar media: aversive

## NPY: abundant signaling peptide in the brain of mammals
[7]
  nociceptive threshold: significantly elevated

B1: NPF: Drosophila neuropeptide F, sole fly homolog of human NPY; synthesized by Quality Controlled Biochemicals (SEQ ID NO: 5) (peptide)
chain: MCQTMRCILVACVALALLAAGCRVEASNSRPPRKNDVNTMADAYKFLQDLDTYYGDRARVRFGKRGSLMDILRNHEMDNINLGKNANNGGEFARGFNEEEIF
modifications: Drosophila melanogaster
[1]; HEK293 cells co-transfected with NPFR1 and TRPV1 cDNAs, in the presence of NPF (1 mM per FIG. 15 legend), 400 nM capsaicin
  effect of NPF on response to capsaicin: drastically attenuated and delayed responses
[1]; HEK293 cells transfected with TRPV1 cDNA alone
  effect of NPF on TRPV1 activity: mild reduction

Source: US20100119454A1, “Use of the conserved Drosophila NPFR1 system for uncovering interacting genes and pathways important in nociception and stress response” (priority 2008, published 2010)
